Measurements taken from the supplement of paper PMC4862054.

How the values were obtained:
Details in all cases: incubation time: 72 h
[1] = tested on: BT-474; experiment: normalised response (% of control), CellTox Green; higher = less cell death (100 = DMSO, 0 = benzethonium chloride kill control)
Method in brief: (§1)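 Breast cancer cell lines, seeded at 20 µl suspension per well, were incubated for 72 h in 384-well plates containing compound at 5 concentrations. These concentrations rose in 10-fold steps over a 10,000-fold range set for each compound. CellTox Green fluorescence (485/520 nm) was read, then CellTiter-Glo luminescence after 10 min at room temperature, and each plate was normalised to 0.1 % DMSO (100) and a positive kill control (0). Values are normalised signals, each at one concentration.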

[2] = tested on: BT-549; experiment: as above
Method in brief: as §1

[3] = tested on: CAL-120; experiment: as above
Method in brief: as §1

[4] = tested on: CAL-148; experiment: as above
Method in brief: as §1

[5] = tested on: CAL-51; experiment: as above
Method in brief: as §1

[6] = tested on: CAL-85-1; experiment: as above
Method in brief: as §1

[7] = tested on: DU-4475; experiment: as above
Method in brief: as §1

[8] = tested on: HCC1143; experiment: as above
Method in brief: as §1

[9] = tested on: HCC1599; experiment: as above
Method in brief: as §1

[10] = tested on: HCC1937; experiment: as above
Method in brief: as §1

[11] = tested on: HDQ-P1; experiment: as above
Method in brief: as §1

[12] = tested on: Hs578T; experiment: as above
Method in brief: as §1

[13] = tested on: MCF-10A; experiment: as above
Method in brief: as §1

[14] = tested on: MDA-MB-231; experiment: as above
Method in brief: as §1

[15] = tested on: MDA-MB-436; experiment: as above
Method in brief: as §1

[16] = tested on: MDA-MB-453; experiment: as above
Method in brief: as §1

[17] = tested on: MDA-MB-468; experiment: as above
Method in brief: as §1

[18] = tested on: MFM-223; experiment: as above
Method in brief: as §1

[19] = tested on: BT-474; experiment: normalised response (% of control), CellTiter-Glo; higher = more viable cells (100 = DMSO, 0 = benzethonium chloride kill control)
Method in brief: as §1

[20] = tested on: BT-549; experiment: as above
Method in brief: as §1

[21] = tested on: CAL-120; experiment: as above
Method in brief: as §1

[22] = tested on: CAL-148; experiment: as above
Method in brief: as §1

[23] = tested on: CAL-51; experiment: as above
Method in brief: as §1

[24] = tested on: CAL-85-1; experiment: as above
Method in brief: as §1

[25] = tested on: DU-4475; experiment: as above
Method in brief: as §1

[26] = tested on: HCC1143; experiment: as above
Method in brief: as §1

[27] = tested on: HCC1599; experiment: as above
Method in brief: as §1

[28] = tested on: HCC1937; experiment: as above
Method in brief: as §1

[29] = tested on: HDQ-P1; experiment: as above
Method in brief: as §1

[30] = tested on: Hs578T; experiment: as above
Method in brief: as §1

[31] = tested on: MCF-10A; experiment: as above
Method in brief: as §1

[32] = tested on: MDA-MB-231; experiment: as above
Method in brief: as §1

[33] = tested on: MDA-MB-436; experiment: as above
Method in brief: as §1

[34] = tested on: MDA-MB-453; experiment: as above
Method in brief: as §1

[35] = tested on: MDA-MB-468; experiment: as above
Method in brief: as §1

[36] = tested on: MFM-223; experiment: as above
Method in brief: as §1

[37] = tested on: SK-BR-3; experiment: as above
Method in brief: as §1

| SMILES | normalised response [1] [%] | normalised response [2] [%] | normalised response [3] [%] | normalised response [4] [%] | normalised response [5] [%] | normalised response [6] [%] | normalised response [7] [%] | normalised response [8] [%] | normalised response [9] [%] | normalised response [10] [%] | normalised response [11] [%] | normalised response [12] [%] | normalised response [13] [%] | normalised response [14] [%] | normalised response [15] [%] | normalised response [16] [%] | normalised response [17] [%] | normalised response [18] [%] | normalised response [19] [%] | normalised response [20] [%] | normalised response [21] [%] | normalised response [22] [%] | normalised response [23] [%] | normalised response [24] [%] | normalised response [25] [%] | normalised response [26] [%] | normalised response [27] [%] | normalised response [28] [%] | normalised response [29] [%] | normalised response [30] [%] | normalised response [31] [%] | normalised response [32] [%] | normalised response [33] [%] | normalised response [34] [%] | normalised response [35] [%] | normalised response [36] [%] | normalised response [37] [%] |
| --- | --- | --- | --- | --- | --- | --- | --- | --- | --- | --- | --- | --- | --- | --- | --- | --- | --- | --- | --- | --- | --- | --- | --- | --- | --- | --- | --- | --- | --- | --- | --- | --- | --- | --- | --- | --- | --- |
| CCCCCCCCc1ccc(CCC(N)(CO)CO)cc1 [Fingolimod] (100 nM) | 101 | 88.7 | 104 | 87.9 | 109 | 102 | 100 | 103 | 111 | 115 | 91.7 | 110 | 95.9 | 78.8 | 97.3 | 109 | 122 | 103 | 99.9 | 95.8 | 97 | 101 | 92.5 | 105 | 99.7 | 100 | 107 | 96 | 103 | 97.4 | 105 | 100 | 100 | 97.4 | 107 | 106 | 107 |
| C/C(=C\c1csc(C)n1)[C@@H]1C[C@@H]2O[C@]2(C)CCC[C@H](C)[C@H](O)[C@@H](C)C(=O)C(C)(C)[C@@H](O)CC(=O)O1 [Patupilone] (10 nM) | 95.7 | 97.3 | 93.6 | 102 | 29.3 | 79.5 | 99.5 | 108 | 106 | 99.4 | 110 | 84 | 103 | 92.9 | 76.8 | 97.9 | 34.5 | 96.3 | 94.6 | 55.1 | 105 | 105 | 56 | 80.2 | 104 | 77.5 | 114 | 100 | 98.7 | 90.9 | 89.1 | 97.9 | 79.9 | 101 | 53.4 | 107 | 99.7 |
| NS(=O)(=O)OC[C@@H]1C[C@@H](n2ccc3c(N[C@H]4CCc5ccccc54)ncnc32)C[C@@H]1O [Pevonedistat] (100 nM) | 102 | 106 | 102 | 94.7 | 36.4 | 81.5 | 97.8 | 120 | 104 | 119 | 99.8 | 107 | 108 | 119 | 102 | 112 | 128 | 65.2 | 114 | 73.2 | 91.1 | 120 | 51.5 | 77.8 | 68.8 | 90.1 | 75.6 | 96.3 | 102 | 98.7 | 113 | 118 | 82.9 | 88.9 | 56.2 | 79.1 | 35.6 |
| CN(C)C[C@@H]1CCn2cc(c3ccccc32)C2=C(C(=O)NC2=O)c2cn(c3ccccc23)CCO1 [Ruboxistaurin] (100 nM) | 98.9 | 109 | 103 | 102 | 101 | 109 | 99.3 | 99.5 | 96.2 | 90 | 102 | 66.2 | 95.6 | 112 | 79.8 | 92.7 | 141 | 103 | 99.5 | 102 | 92.7 | 94.5 | 105 | 96.6 | 95.5 | 94.7 | 105 | 95.1 | 99.3 | 98 | 89.3 | 96.1 | 98 | 105 | 93.8 | 99.8 | 93 |
| O=C1NC(=O)[C@@H](c2cn3c4c(cccc24)CCC3)[C@@H]1c1c[nH]c2ccccc12 [Tivantinib] (10 nM) | 97.8 | 104 | 103 | 78.8 | 102 | 102 | 100 | 105 | 103 | 106 | 109 | 110 | 84.5 | 105 | 90.1 | 106 | 131 | 98.9 | 104 | 98.3 | 96.3 | 98.4 | 106 | 99.2 | 104 | 97.8 | 105 | 97.6 | 100 | 92.6 | 103 | 103 | 102 | 85 | 99.6 | 99.6 | 99.4 |
| CC[C@]1(O)C[C@H]2CN(CCc3c([nH]c4ccccc34)[C@@](C(=O)OC)(c3cc4c(cc3OC)N(C=O)[C@H]3[C@@](O)(C(=O)OC)[C@H](OC(C)=O)[C@]5(CC)C=CCN6CC[C@]43[C@@H]65)C2)C1 [Vincristine] (10 nM) | 76.7 | 77.1 | 93.9 | 71.5 | 73.2 | 45 | 98.7 | 98.8 | 90.7 | 93.3 | 44.8 | 88.5 | 51.6 | 53.4 | 56 | 87.5 | -5.1 | 94.7 | 71 | 38.2 | 66.8 | 64.6 | 86.8 | 30.6 | 86.3 | 53.5 | 63.5 | 75.7 | 71 | 82.6 | 60.5 | 76.7 | 70.8 | 70.6 | 20.9 | 90.8 | 17.8 |
